Reference: the NIST ThermoML archive (doi:10.1016/j.fluid.2015.03.016)
Values joined by “and” are separate entries in the source; they are usually repeats but may differ in a detail not shown here. Equal entries are not always repeated.

Conditions: Liquid

CCCCOC(=O)CCCCC(=O)OCCCC [dibutyl hexanedioate]
Conditions | viscosity
303.14 K, 1250 kPa, Vibrating wire viscometry | 4.201 mPa·s
303.14 K, 1280 kPa, Vibrating wire viscometry | 4.21 mPa·s
303.14 K, 2750 kPa, Vibrating wire viscometry | 4.305 mPa·s
303.14 K, 2760 kPa, Vibrating wire viscometry | 4.313 mPa·s
303.14 K, 2770 kPa, Vibrating wire viscometry | 4.312 mPa·s
303.14 K, 5400 kPa, Vibrating wire viscometry | 4.417 mPa·s
303.14 K, 5420 kPa, Vibrating wire viscometry | 4.417 mPa·s and 4.419 mPa·s and 4.413 mPa·s
303.14 K, 7530 kPa, Vibrating wire viscometry | 4.511 mPa·s
303.14 K, 7570 kPa, Vibrating wire viscometry | 4.513 mPa·s
303.14 K, 7660 kPa, Vibrating wire viscometry | 4.532 mPa·s
303.14 K, 10500 kPa, Vibrating wire viscometry | 4.68 mPa·s
303.14 K, 10520 kPa, Vibrating wire viscometry | 4.686 mPa·s
303.14 K, 10570 kPa, Vibrating wire viscometry | 4.683 mPa·s
303.14 K, 20260 kPa, Vibrating wire viscometry | 5.251 mPa·s
303.14 K, 20300 kPa, Vibrating wire viscometry | 5.25 mPa·s
303.14 K, 20320 kPa, Vibrating wire viscometry | 5.249 mPa·s
303.14 K, 65590 kPa, Vibrating wire viscometry | 8.312 mPa·s
303.15 K, 1220 kPa, Vibrating wire viscometry | 4.205 mPa·s
303.15 K, 1280 kPa, Vibrating wire viscometry | 4.208 mPa·s
303.15 K, 1290 kPa, Vibrating wire viscometry | 4.21 mPa·s
303.15 K, 1300 kPa, Vibrating wire viscometry | 4.211 mPa·s
303.15 K, 2770 kPa, Vibrating wire viscometry | 4.312 mPa·s
303.15 K, 5420 kPa, Vibrating wire viscometry | 4.415 mPa·s and 4.419 mPa·s
303.15 K, 7660 kPa, Vibrating wire viscometry | 4.531 mPa·s and 4.537 mPa·s
303.15 K, 7680 kPa, Vibrating wire viscometry | 4.531 mPa·s and 4.533 mPa·s and 4.537 mPa·s
303.15 K, 7730 kPa, Vibrating wire viscometry | 4.518 mPa·s
303.15 K, 10560 kPa, Vibrating wire viscometry | 4.689 mPa·s
303.15 K, 15380 kPa, Vibrating wire viscometry | 4.954 mPa·s
303.15 K, 15390 kPa, Vibrating wire viscometry | 4.955 mPa·s and 4.963 mPa·s and 4.951 mPa·s
303.15 K, 30100 kPa, Vibrating wire viscometry | 5.839 mPa·s
303.15 K, 30180 kPa, Vibrating wire viscometry | 5.821 mPa·s
303.15 K, 30250 kPa, Vibrating wire viscometry | 5.828 mPa·s
303.15 K, 30290 kPa, Vibrating wire viscometry | 5.827 mPa·s
303.15 K, 30330 kPa, Vibrating wire viscometry | 5.817 mPa·s
303.15 K, 30380 kPa, Vibrating wire viscometry | 5.827 mPa·s
303.15 K, 39970 kPa, Vibrating wire viscometry | 6.452 mPa·s
303.15 K, 40060 kPa, Vibrating wire viscometry | 6.443 mPa·s
303.15 K, 40100 kPa, Vibrating wire viscometry | 6.443 mPa·s
303.15 K, 40150 kPa, Vibrating wire viscometry | 6.446 mPa·s
303.15 K, 49790 kPa, Vibrating wire viscometry | 7.073 mPa·s
303.15 K, 49810 kPa, Vibrating wire viscometry | 7.073 mPa·s
303.15 K, 49830 kPa, Vibrating wire viscometry | 7.07 mPa·s
303.15 K, 49880 kPa, Vibrating wire viscometry | 7.058 mPa·s
303.15 K, 65340 kPa, Vibrating wire viscometry | 8.283 mPa·s
303.15 K, 65490 kPa, Vibrating wire viscometry | 8.277 mPa·s
313.14 K, 1070 kPa, Vibrating wire viscometry | 3.362 mPa·s
313.14 K, 1090 kPa, Vibrating wire viscometry | 3.364 mPa·s
313.14 K, 1110 kPa, Vibrating wire viscometry | 3.371 mPa·s
313.14 K, 1160 kPa, Vibrating wire viscometry | 3.369 mPa·s
313.14 K, 2580 kPa, Vibrating wire viscometry | 3.416 mPa·s
313.14 K, 2590 kPa, Vibrating wire viscometry | 3.412 mPa·s and 3.414 mPa·s
313.14 K, 2600 kPa, Vibrating wire viscometry | 3.415 mPa·s
313.14 K, 2610 kPa, Vibrating wire viscometry | 3.416 mPa·s
313.14 K, 5050 kPa, Vibrating wire viscometry | 3.518 mPa·s
313.14 K, 5060 kPa, Vibrating wire viscometry | 3.518 mPa·s
313.14 K, 7630 kPa, Vibrating wire viscometry | 3.595 mPa·s
313.14 K, 10470 kPa, Vibrating wire viscometry | 3.713 mPa·s
313.14 K, 15150 kPa, Vibrating wire viscometry | 3.89 mPa·s and 3.889 mPa·s
313.14 K, 15210 kPa, Vibrating wire viscometry | 3.888 mPa·s
313.14 K, 20300 kPa, Vibrating wire viscometry | 4.123 mPa·s
313.14 K, 20430 kPa, Vibrating wire viscometry | 4.12 mPa·s
313.14 K, 20440 kPa, Vibrating wire viscometry | 4.123 mPa·s
313.14 K, 30160 kPa, Vibrating wire viscometry | 4.553 mPa·s
313.14 K, 30180 kPa, Vibrating wire viscometry | 4.556 mPa·s and 4.554 mPa·s
313.14 K, 30190 kPa, Vibrating wire viscometry | 4.556 mPa·s
313.14 K, 40210 kPa, Vibrating wire viscometry | 5.026 mPa·s
313.14 K, 40270 kPa, Vibrating wire viscometry | 5.022 mPa·s
313.14 K, 40290 kPa, Vibrating wire viscometry | 5.03 mPa·s
313.14 K, 40330 kPa, Vibrating wire viscometry | 5.028 mPa·s
313.14 K, 50580 kPa, Vibrating wire viscometry | 5.596 mPa·s
313.14 K, 50590 kPa, Vibrating wire viscometry | 5.598 mPa·s
313.14 K, 50610 kPa, Vibrating wire viscometry | 5.595 mPa·s and 5.596 mPa·s and 5.591 mPa·s
313.14 K, 50640 kPa, Vibrating wire viscometry | 5.591 mPa·s
313.14 K, 65090 kPa, Vibrating wire viscometry | 6.358 mPa·s
313.14 K, 65110 kPa, Vibrating wire viscometry | 6.365 mPa·s
313.15 K, 5050 kPa, Vibrating wire viscometry | 3.522 mPa·s and 3.516 mPa·s
313.15 K, 5310 kPa, Vibrating wire viscometry | 3.531 mPa·s
313.15 K, 5320 kPa, Vibrating wire viscometry | 3.531 mPa·s
313.15 K, 5340 kPa, Vibrating wire viscometry | 3.529 mPa·s
313.15 K, 5350 kPa, Vibrating wire viscometry | 3.534 mPa·s
313.15 K, 5370 kPa, Vibrating wire viscometry | 3.531 mPa·s
313.15 K, 5380 kPa, Vibrating wire viscometry | 3.532 mPa·s
313.15 K, 7570 kPa, Vibrating wire viscometry | 3.59 mPa·s
313.15 K, 7580 kPa, Vibrating wire viscometry | 3.595 mPa·s
313.15 K, 7610 kPa, Vibrating wire viscometry | 3.598 mPa·s
313.15 K, 10450 kPa, Vibrating wire viscometry | 3.717 mPa·s
313.15 K, 10470 kPa, Vibrating wire viscometry | 3.712 mPa·s
313.15 K, 10500 kPa, Vibrating wire viscometry | 3.714 mPa·s
313.15 K, 15160 kPa, Vibrating wire viscometry | 3.887 mPa·s and 3.889 mPa·s
313.15 K, 15180 kPa, Vibrating wire viscometry | 3.891 mPa·s
313.15 K, 20420 kPa, Vibrating wire viscometry | 4.122 mPa·s
313.15 K, 30150 kPa, Vibrating wire viscometry | 4.56 mPa·s
313.15 K, 30200 kPa, Vibrating wire viscometry | 4.555 mPa·s
323.11 K, 101.33 kPa, Capillary tube (Ostwald / Ubbelohde) method | 2.704 mPa·s
323.14 K, 1140 kPa, Vibrating wire viscometry | 2.727 mPa·s and 2.723 mPa·s
323.14 K, 5040 kPa, Vibrating wire viscometry | 2.856 mPa·s
323.14 K, 10170 kPa, Vibrating wire viscometry | 3.018 mPa·s
323.14 K, 30230 kPa, Vibrating wire viscometry | 3.694 mPa·s and 3.693 mPa·s
323.14 K, 39990 kPa, Vibrating wire viscometry | 4.08 mPa·s
323.14 K, 40050 kPa, Vibrating wire viscometry | 4.079 mPa·s
323.15 K, 1130 kPa, Vibrating wire viscometry | 2.728 mPa·s and 2.722 mPa·s
323.15 K, 2630 kPa, Vibrating wire viscometry | 2.775 mPa·s
323.15 K, 2640 kPa, Vibrating wire viscometry | 2.778 mPa·s
323.15 K, 2650 kPa, Vibrating wire viscometry | 2.776 mPa·s and 2.775 mPa·s
323.15 K, 5040 kPa, Vibrating wire viscometry | 2.856 mPa·s
323.15 K, 5070 kPa, Vibrating wire viscometry | 2.86 mPa·s
323.15 K, 5100 kPa, Vibrating wire viscometry | 2.863 mPa·s
323.15 K, 5170 kPa, Vibrating wire viscometry | 2.846 mPa·s
323.15 K, 5180 kPa, Vibrating wire viscometry | 2.841 mPa·s
323.15 K, 5190 kPa, Vibrating wire viscometry | 2.843 mPa·s
323.15 K, 7740 kPa, Vibrating wire viscometry | 2.926 mPa·s and 2.931 mPa·s
323.15 K, 7750 kPa, Vibrating wire viscometry | 2.924 mPa·s
323.15 K, 7760 kPa, Vibrating wire viscometry | 2.926 mPa·s and 2.931 mPa·s
323.15 K, 10130 kPa, Vibrating wire viscometry | 3.018 mPa·s
323.15 K, 10140 kPa, Vibrating wire viscometry | 3.02 mPa·s
323.15 K, 10150 kPa, Vibrating wire viscometry | 3.02 mPa·s and 3.016 mPa·s
323.15 K, 15220 kPa, Vibrating wire viscometry | 3.172 mPa·s and 3.173 mPa·s and 3.174 mPa·s
323.15 K, 15230 kPa, Vibrating wire viscometry | 3.175 mPa·s and 3.171 mPa·s
323.15 K, 20200 kPa, Vibrating wire viscometry | 3.331 mPa·s
323.15 K, 20230 kPa, Vibrating wire viscometry | 3.327 mPa·s and 3.335 mPa·s
323.15 K, 20250 kPa, Vibrating wire viscometry | 3.33 mPa·s
323.15 K, 20270 kPa, Vibrating wire viscometry | 3.334 mPa·s
323.15 K, 30190 kPa, Vibrating wire viscometry | 3.693 mPa·s
323.15 K, 30220 kPa, Vibrating wire viscometry | 3.689 mPa·s
323.15 K, 40130 kPa, Vibrating wire viscometry | 4.073 mPa·s
323.15 K, 40140 kPa, Vibrating wire viscometry | 4.077 mPa·s
323.15 K, 50030 kPa, Vibrating wire viscometry | 4.456 mPa·s
323.15 K, 50050 kPa, Vibrating wire viscometry | 4.45 mPa·s
323.15 K, 50060 kPa, Vibrating wire viscometry | 4.457 mPa·s
323.16 K, 5190 kPa, Vibrating wire viscometry | 2.849 mPa·s
323.16 K, 65110 kPa, Vibrating wire viscometry | 5.126 mPa·s
323.16 K, 65190 kPa, Vibrating wire viscometry | 5.123 mPa·s
323.16 K, 65230 kPa, Vibrating wire viscometry | 5.125 mPa·s
323.16 K, 65310 kPa, Vibrating wire viscometry | 5.119 mPa·s
333.03 K, 101.33 kPa, Capillary tube (Ostwald / Ubbelohde) method | 2.25 mPa·s
333.15 K, 1000 kPa, Vibrating wire viscometry | 2.27 mPa·s
333.15 K, 1020 kPa, Vibrating wire viscometry | 2.27 mPa·s
333.15 K, 1170 kPa, Vibrating wire viscometry | 2.269 mPa·s
333.15 K, 1200 kPa, Vibrating wire viscometry | 2.268 mPa·s
333.15 K, 2530 kPa, Vibrating wire viscometry | 2.296 mPa·s
333.15 K, 5030 kPa, Vibrating wire viscometry | 2.367 mPa·s
333.15 K, 5050 kPa, Vibrating wire viscometry | 2.362 mPa·s
333.15 K, 5070 kPa, Vibrating wire viscometry | 2.365 mPa·s
